According to patent publication US8901315B2, “Thienopyrazole derivative having PDE7 inhibitory activity” (Daiichi Sankyo Company, Limited, priority 2004, dated 2014):
Structures can show the parent of a compound that is named as a salt.

Legend:
[1] = target: PDE 4 (phosphodiesterase IV); assay: PDE 4 inhibiting effect (3H-cAMP hydrolysis, PDE 4 active fraction from Balb/c mouse liver); type: biochemical; conditions: PDE 4 fraction from Balb/c mice liver, 0.064 μM cAMP, 2 hours at 25° C.; read-out: PDE4 IC50
Description: Methods for Evaluating the PDE 4 Inhibiting Effect
The PDE 4 (phosphodiesterase IV) inhibiting effect of the compounds of the present invention was performed by the following method, which was modified assay method described in Biochemical. […] That is, the livers obtained from three Balb/c mice (male, 12 weeks: obtainable from CLEA Japan, Inc.) were suspended with 30 mL of buffer solution B [20 mM of bis-tris, 5 mM of 2-mercaptoethanol, 2 mM of benzamidine, 2 mM of EDTA, 0.1 mM of 4-(2-aminoethyl)benzenesulfonyl hydrochloride, 50 mM of sodium acetate; pH 6.5], then homogenized by Polytron® homogenizer. The homogenate were centrifuged under 25,000×G for 10 minutes at 4° C. The supernatant was separated and thus obtained supernatant was further centrifuged under 100,000×G for 60 minutes at 4° C., and then filtrated with 0.2 μm filter to obtain the soluble fraction. • (2) The obtained soluble fraction was filled in equilibrium DEAE sepharose column (1×10 cm) with buffer solution B, and phosphodiesterase fractions were eluted by 120 mL of buffer solution B with linear gradient from 0.05 to 1M sodium acetate concentration. 5 mL each of 24 eluents were collected, and each eluents were examined for cyclic AMP metabolic activities of phosphodiesterase. […] After the reaction, suspension of Sephadex®-QAE in 10 mM of HEPES-Na (pH 7.0) was added to the reaction mixture, and the mixture was left at rest for 5 minutes.

[2] = target: PDE 7 (phosphodiesterase VII) (Homo sapiens (Human), UniProt Q13946); assay: PDE 7 inhibiting effect (3H-cAMP hydrolysis, PDE 7 active fraction from MOLT-4 cells); type: biochemical; conditions: PDE 7 fraction from MOLT-4 cells, 0.064 μM cAMP, 10 μM rolipram, 2 hours at 25° C.; read-out: PDE7 IC50
Description: Methods for Evaluating the PDE 7 Inhibiting Effect
The PDE 7 (phosphodiesterase VII) inhibiting effect of the compounds of the present invention was performed by the following method, which was modified assay method described in Biochemical. Pharmacol. 48(6), 1219-1223 (1994). • (1) The active fraction of PDE 7 (phosphodiesterase VII) was obtained. That is, MOLT-4 (obtainable from ATCC as ATCC No. CRL-1582), which was cell line of human acute lymphoblastic lymphoma T cells, was incubated in RPMI1640 culture medium containing 10% fetal bovine serum to obtain 5×10^8 MOLT-4 cells. The cells were collected by centrifugation and suspended with 10 mL of buffer solution A [25 mM of tris-HCl, 5 mM of 2-mercaptoethanol, 2 mM of benzamidine, 2 mM of EDTA, 0.1 mM of 4-(2-aminoethyl)benzenesulfonyl hydrochloride; pH 7.5], then homogenized by Polytron® homogenizer. The homogenate were centrifuged under 25,000×G for 10 minutes at 4° C. The supernatant was separated and thus obtained supernatant was further centrifuged under 100,000×G for 60 minutes at 4° C., and then filtrated with 0.2 μm filter to obtain the soluble fraction. • (2) The obtained soluble fraction was filled in equilibrium HiTrap Q column (5 mL×2) with buffer solution A, and phosphodiesterase fractions were eluted by 300 mL of buffer solution A with linear gradient from 0 to 0.8 M NaCl concentration. 5 mL each of 60 eluents were collected, and each eluents were examined for cyclic AMP metabolic activities of phosphodiesterase. […] After the reaction, suspension of Sephadex®-QAE in 10 mM of HEPES-Na (pH 7.0) was added to the reaction mixture, and the mixture was left at rest for 5 minutes.

PDE 7 (phosphodiesterase VII), sequence (Q13946 whole entry): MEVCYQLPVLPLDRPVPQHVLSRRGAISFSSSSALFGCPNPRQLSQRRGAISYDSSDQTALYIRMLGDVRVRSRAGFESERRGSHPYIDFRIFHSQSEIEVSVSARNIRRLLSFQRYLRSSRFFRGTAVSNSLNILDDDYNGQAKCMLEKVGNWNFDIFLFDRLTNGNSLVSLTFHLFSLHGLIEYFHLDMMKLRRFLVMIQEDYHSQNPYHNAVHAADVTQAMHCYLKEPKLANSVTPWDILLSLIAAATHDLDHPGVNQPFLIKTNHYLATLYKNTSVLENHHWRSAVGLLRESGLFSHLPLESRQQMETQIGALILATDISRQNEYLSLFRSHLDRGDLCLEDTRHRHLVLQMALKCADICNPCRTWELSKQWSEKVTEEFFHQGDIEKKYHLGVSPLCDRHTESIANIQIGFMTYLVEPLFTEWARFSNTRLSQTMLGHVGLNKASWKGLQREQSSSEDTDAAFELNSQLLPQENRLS

SMILES | IC50 [1] [nM] | IC50 [2] [nM]
CC(=O)c1ccc(NC(=O)c2cc3c(C)nn(C4CCCCC4)c3s2)cc1 [Example 38, N-(4-Acetylphenyl)-1-cyclohexyl-3-methyl-1H-thieno[2,3-c]pyrazole-5-carboxamide] | 5000 | 33
Cc1nn(C2CCCCC2)c2sc(C(=O)Nc3ccc(C(=O)N(C)C)cc3)cc12 [Example 39, 1-Cyclohexyl-N-{4-[(dimethylamino)carbonyl]phenyl}-3-methyl-1H-thieno[2,3-c]pyrazole-5-carboxamide] | 3500 | 14
Cc1nn(C2CCCCC2)c2sc(C(=O)Nc3ccc(C(=O)NCCO)cc3)cc12 [Example 46, 1-Cyclohexyl-N-(4-{[(2-hydroxyethyl)amino]carbonyl}phenyl)-3-methyl-1H-thieno[2,3-c]pyrazole-5-carboxamide] | 2000 | 30
CC(=O)Nc1ccc(NC(=O)c2cc3c(C)nn(C4CCCCC4)c3s2)cn1 [Example 47, N-[6-(Acetylamino)-3-pyridinyl]-1-cyclohexyl-3-methyl-1H-thieno[2,3-c]pyrazole-5-carboxamide] | 3500 | 32
Cc1nn(C2CCCCC2)c2sc(C(=O)Nc3ccc(C(=O)NC(C)(C)C)cc3)cc12 [Example 51, N-{4-[(tert-Butylamino)carbonyl]phenyl}-1-cyclohexyl-3-methyl-1H-thieno[2,3-c]pyrazole-5-carboxamide] | 9500 | 75
Cc1nn(C2CCCCC2)c2sc(C(=O)Nc3ccc(NC=O)cc3)cc12 [Example 53, 1-Cyclohexyl-N-[4-(formylamino)phenyl]-3-methyl-1H-thieno[2,3-c]pyrazole-5-carboxamide] | 3500 | 55
Cc1nn(C2CCCCC2)c2sc(C(=O)Nc3ccc4c(c3)CCN4C(=O)C3CC3)cc12 [Example 58, 1-Cyclohexyl-N-[1-(cyclopropylcarbonyl)-2,3-dihydro-1H-indol-5-yl]-3-methyl-1H-thieno[2,3-c]pyrazole-5-carboxamide] | 3600 | 36
Cc1nn(C2CCCCC2)c2sc(C(=O)Nc3ccc4c(c3)CCN4S(C)(=O)=O)cc12 [Example 59, 1-Cyclohexyl-3-methyl-N-[1-(methylsulfonyl)-2,3-dihydro-1H-indol-5-yl]-1H-thieno[2,3-c]pyrazole-5-carboxamide] | 7000 | 80
CC(=O)n1ccc2cc(NC(=O)c3cc4c(C)nn(C5CCCCC5)c4s3)ccc21 [Example 60, N-(1-Acetyl-1H-indol-5-yl)-1-cyclohexyl-3-methyl-1H-thieno[2,3-c]pyrazole-5-carboxamide] | 6500 | 65
CNC(=O)Cc1ccc(NC(=O)c2cc3c(C)nn(C4CCCCC4)c3s2)cc1 [Example 70] | 4700 | 25
Cc1nn(C2CCCCC2)c2sc(C(=O)Nc3ccc(N4CCNCC4)cc3)cc12 [Example 72, 1-Cyclohexyl-3-methyl-N-[4-(1-piperazinyl)phenyl]-1H-thieno[2,3-c]pyrazole-5-carboxamide HCl salt] | 1200 | 10
CC(=O)N1CCN(c2ccc(NC(=O)c3cc4c(C)nn(C5CCCCC5)c4s3)cc2)CC1 [Example 73, N-[4-(4-Acetyl-1-piperazinyl)phenyl]-1-cyclohexyl-3-methyl-1H-thieno[2,3-c]pyrazole-5-carboxamide] | 1000 | 12
Cc1nn(C2CCCCC2)c2sc(C(=O)N[C@H]3CC[C@H](O)CC3)cc12 [Example 74, 1-Cyclohexyl-N-(trans-hydroxycyclohexyl)-3-methyl-1H-thieno[2,3-c]pyrazole-5-carboxamide] | 7000 | 50
Cc1nn(C2CCCCC2)c2sc(C(=O)Nc3ccc(OCC(=O)N4CCN(C)CC4)cc3)cc12 [Example 76, 1-Cyclohexyl-3-methyl-N-{4-[2-(4-methyl-1-piperazinyl)-2-oxoethexy]-phenyl}-1H-thieno[2,3-c]pyrazole-5-carboxamide] | 2000 | 20
CC(=O)N[C@H]1CC[C@H](NC(=O)c2cc3c(C)nn(C4CCCCC4)c3s2)CC1 [Example 80, N-[trans-4-(Acetylamino)cyclohexyl]-1-cyclohexyl-3-methyl-1H-thieno[2,3-c]pyrazole-5-carboxamide] | 2500 | 60
Cc1nn(C2CCCCC2)c2sc(C(=O)Nc3ccc(N)cc3)cc12 [Example 99, N-(4-Aminophenyl)-1-cyclohexyl-3-methyl-1H-thieno[2,3-c]pyrazole-5-carboxamide] | 5000 | 99
COC(=O)c1ccc(NC(=O)c2cc3c(C)nn(C4CCCCC4)c3s2)cn1 [Example 102, Methyl 5-{[(1-Cyclohexyl-3-methyl-1H-thieno[2,3-c]pyrazol-5-yl)-carbonyl]amino}-2-pyridinecarboxylate] | 5500 | 85

Second part, the compound after the results:

IC50 [1] [nM] | IC50 [2] [nM] | SMILES
15000 | 75 | CCOC(=O)c1ccc(NC(=O)c2cc3c(C)nn(C4CCCCC4)c3s2)cc1 [Example 40, Ethyl 4-{[(1-cyclohexyl-3-methyl-1H-thieno[2,3-c]pyrazol-5-yl)-carbonyl]amino}benzoate]
12000 | 50 | Cc1nn(C2CCCCC2)c2sc(C(=O)Nc3ccc(C(=O)O)cc3)cc12 [Example 41, 4-{[(1-Cyclohexyl-methyl-1H-thieno[2,3-c]pyrazol-5-yl)carbonyl]-amino}benzoic acid]
12000 | 50 | Cc1nn(C2CCCCC2)c2sc(C(=O)Nc3ccc(C(=O)NC(C)C)cc3)cc12 [Example 45, 1-Cyclohexyl-N-{4-[(isopropylamino)carbonyl]phenyl}-3-methyl-1H-thieno[2,3-c]pyrazole-5-carboxamide]
3500 | 23 | CNC(=O)COc1ccc(NC(=O)c2cc3c(C)nn(C4CCCCC4)c3s2)cc1 [Example 67]
2000 | 20 | Cc1nn(C2CCCCC2)c2sc(C(=O)Nc3ccc(OCC(=O)N(C)C)cc3)cc12 [Example 77, 1-Cyclohexyl-N-{4-[2-(dimethylamino)-2-oxoethoxy]phenyl}-3-methyl-1H-thieno[2,3-c]pyrazole-5-carboxamide]
> 30000 | 58 | CC(=O)Nc1ccc(NC(=O)c2cc3c(C)nn(C4CCCCCC4)c3s2)cc1 [Example 94, N-[4-(Acetylamino)phenyl]-1-cycloheptyl-3-methyl-1H-thieno[2,3-c]pyrazole-5-carboxamide]
> 30000 | 37 | CC(=O)Nc1ccc(NC(=O)c2cc3c(C)nn(C4CCCCC4)c3s2)cc1 [Example 100, N-[4-(Acetylamino)phenyl]-1-cyclohexyl-3-methyl-1H-thieno[2,3-c]pyrazole-5-carboxamide]
1300 | 30 | COCC(=O)Nc1ccc(NC(=O)c2cc3c(C)nn(C4CCCCC4)c3s2)cc1 [Example 101, 1-Cyclohexyl-N-{4-[(methoxyacetyl)amino]phenyl}-3-methyl-1H-thieno[2,3-c]pyrazole-5-carboxamide]
1500 | 58 | CNC(=O)c1ccc(NC(=O)c2cc3c(C)nn(C4CCCCC4)c3s2)cn1 [Example 104, 1-Cyclohexyl-3-methyl-N-{6-[(methylamino)carbonyl]-3-pyridinyl}-1H-thieno[2,3-c]pyrazole-5-carboxamide]
